Results reported in patent US6645911B2, “Synergistic herbicidal mixtures” (BASF Aktiengesellschaft, priority 2000, dated 2003).

Columns and labels:
Type in all cases: in vivo
[1] = test system: Alopecuris myosuroides; assay: Postemergence herbicidal greenhouse evaluation, Test Serie A (Table I); conditions: 21 days after treatment
Experimental: (§1) In the following examples, synergism for two-way combinations is determined by the Colby^1 method, i.e. the expected (or predicted) response of the combination is calculated by taking the product of the observed response for each individual component of the combination when applied alone divided by 100 and subtracting this value from the sum of the observed response for each component when applied alone. Synergism of the combination is then determined by comparing the observed response of the combination to the expected (or predicted) response as calculated from the observed responses of each individual component alone. If the observed response of the combination is greater than the expected (or predicted) response then the combination is said to be synergistic and falls within the definition of synergistic effect as previously defined.
(§2) Postemergence Herbicidal Greenhouse Evaluations
(§3) Plant seeds are sown in pots containing a loamy sand soil (0.5 l). The herbicides are applied as single treatments, or in a combination comprising a compound of formula I and a second compound as defined above, after emergence of weeds and crop. The herbicidal performance is assessed as percent damage in comparison to the untreated control plants. The assessment is done 21 days after the treatment. Wheat and barley are treated at the 3-4 leaf stage, the broad-leaf weeds at the 2-4 leaf stage and annual grasses at the 2-3 leaf stage. [formula]
(§4) For the compound of formula I picolinafen is employed.
(§5) The damage caused by the chemicals was assessed with reference to a scale from 0 to 100% in comparison with the untreated control plants. 0 means no damage and 100 means compete destruction of the plants.

[2] = test system: Galium aparine; assay: as above; conditions: 21 days after treatment
Experimental: as §1, §2, §3, §4, §5

[3] = test system: Lamium purpurium; assay: as above; conditions: 21 days after treatment
Experimental: as §1, §2, §3, §4, §5

[4] = test system: Papaver rhoeas; assay: as above; conditions: 21 days after treatment
Experimental: as §1, §2, §3, §4, §5

[5] = test system: Stellaria media; assay: as above; conditions: 21 days after treatment
Experimental: as §1, §2, §3, §4, §5

[6] = test system: Stellaria media; assay: Postemergence herbicidal greenhouse evaluation, Test Serie A (Table II, picolinafen/carfentrazone-ethyl); conditions: 21 days after treatment
Experimental: as §1, §2, §3, §4, §5

[7] = test system: Anthimis mixta; assay: Postemergence herbicidal evaluation, Test Serie B, in spring wheat (Table III); conditions: weed growth stage 14, test period 14 days
Experimental: as §1, §5
(§6) For the post-emergence treatment, the test plants were first grown to a height of 3 to 20 cm, depending on the growth habit, and only then treated. The herbicides were suspended or emulsified in water as the vehicle and sprayed with the aid of finely distributing nozzles.
(§7) Cinidon-ethyl was formulated as a 20% by weight emulsion concentrate and employed in the spray mixture with addition of that amount of solvent system with which the active ingredient had been applied at the application rates shown in the tables.
(§8) Picolinofen was formulated as a 10% by weight emulsion concentrate and empolyed in the spray mixture with addition of that amount of solvent system with which the active ingredient had been applied at the rates shown in the tables.
(§9) The test period extended over 14 days. During this time, the plants were attended, and their responses to the treatments with active ingredients were recorded (Tables III and IV).

[8] = test system: Veronica persicaria; assay: as above; conditions: weed growth stage 14, test period 14 days
Experimental: as §1, §5, §6, §7, §8, §9

[9] = test system: Stellaria media; assay: Postemergence herbicidal evaluation, Test Serie B, in spring barley (Table IV); conditions: weed growth stage 22, test period 14 days
Experimental: as §1, §5
For the post-emergence treatment, the test plants were first grown to a height of 3 to 20 cm, depending on the growth habit, and only then treated. […]
as §9

[10] = Picolinafen 30 g/ha, Flufenacet 0 g/ha
[11] = Picolinafen 60 g/ha, Flufenacet 0 g/ha
[12] = Picolinafen 15 g/ha, Flufenacet 0 g/ha
[13] = Picolinafen 0 g/ha, Flufenacet 15 g/ha
[14] = Picolinafen 0 g/ha, Flufenacet 30 g/ha
[15] = Picolinafen 0 g/ha, Flufenacet 120 g/ha

O=C(Nc1ccc(F)cc1)c1cccc(Oc2cccc(C(F)(F)F)c2)n1 [Picolinafen, N-(4-fluorophenyl)-6-(-3-trifluoromethylphenoxy)-pyrid-2-ylcarboxamide]
% Control OBS [1, 10]: 20%
% Control OBS [1, 11]: 43%
% Control OBS ([1]; Picolinafen 120 g/ha, Flufenacet 0 g/ha): 60%
% Control OBS [2, 12]: 78%
% Control OBS [3, 10]: 15%
% Control OBS [4, 10]: 15%
% Control OBS [4, 11]: 35%
% Control OBS [5, 12]: 53%
% Control OBS [5, 10]: 73%
% Control OBS ([6]; Picolinafen 30 g/ha, Carfentrazone-ethyl 0 g/ha): 37%
% Control OBS ([6]; Picolinafen 60 g/ha, Carfentrazone-ethyl 0 g/ha): 45%
% Control OBS ([6]; Picolinafen 120 g/ha, Carfentrazone-ethyl 0 g/ha): 72%
% Control OBS ([7]; Picolinafen 50 g/ha alone): 10%
% Control OBS ([8]; Picolinafen 50 g/ha alone): 10%
% Control OBS ([9]; Picolinafen 50 g/ha alone): 10%

CC(C)N(C(=O)COc1nnc(C(F)(F)F)s1)c1ccc(F)cc1 [Flufenacet]
% Control OBS [1, 13]: 75%
% Control OBS [2, 13]: 40%
% Control OBS [2, 14]: 55%
% Control OBS [3, 15]: 18%
% Control OBS [4, 13]: 0%
% Control OBS [4, 14]: 0%
% Control OBS [4, 15]: 18%
% Control OBS [5, 14]: 0%
% Control OBS ([5]; Picolinafen 0 g/ha, Flufenacet 60 g/ha): 0%
% Control OBS [5, 15]: 0%

CCOC(=O)/C(Cl)=C/c1cc(N2C(=O)C3=C(CCCC3)C2=O)ccc1Cl [Cinidon-ethyl, ethyl (Z)-2-chloro-3-[2-chloro-5-(1,3-dioxo-4,5,6,7-tetrahydroisoindol-2-yl)-phenyl]acrylate]
% Control OBS ([7]; Cinidon-ethyl 50 g/ha alone): 52%
% Control OBS ([8]; Cinidon-ethyl 50 g/ha alone): 50%
% Control OBS ([9]; Cinidon-ethyl 50 g/ha alone): 23%

CCOC(=O)C(Cl)Cc1cc(-n2nc(C)n(C(F)F)c2=O)c(F)cc1Cl (racemic) [Carfentrazone-ethyl, ethyl (RS)-2-chloro-3-[2-chloro-5-(4-difluoromethyl-4,5-dihydro-3-methyl-5-oxo-1H-1,2,4-triazol-1-yl)-4-fluorophenyl]propionate]
% Control OBS ([6]; Picolinafen 0 g/ha, Carfentrazone-ethyl 3.75 g/ha): 0%
% Control OBS ([6]; Picolinafen 0 g/ha, Carfentrazone-ethyl 7.50 g/ha): 0%
% Control OBS ([6]; Picolinafen 0 g/ha, Carfentrazone-ethyl 15 g/ha): 0%
% Control OBS ([6]; Picolinafen 0 g/ha, Carfentrazone-ethyl 30 g/ha): 0%
